Data on six compounds can be found in patent US7851006B2, “Taste potentiator compositions and beverages containing same” (Cadbury Adams USA LLC, priority 2005, dated 2010).

Experiment [1] concerns perceived sweetness of pH 3.2 buffered sucrose solution (expert panel members). The experiment is described as follows: Sucrose Equivalent Value (SEV): expert panel matches test solution to stock sucrose solutions. Format: in vivo. To be noted: for SEV (%): 500 ppm potentiator in pH 3.2 buffered solution containing 5% sucrose; for effect on sweetness of the sucrose solution (dose response curve): 0 to 1000 ppm in pH 3.2 buffered 5% sucrose solution; for sweetness enhancement of sucrose solutions by different forms of 2,4-DHB: 500 ppm in pH 3.2 buffered 0%, 3%, 5%, 7% and 9% sucrose. The method, then:
(§1) One method of measuring the perceived sweetness of a solution is to match it with a stock sucrose solution of known concentration. In the present experiments, the compound of interest is added at a predetermined concentration to a pH 3.2 buffered solution containing 5% sucrose. A number of expert panel members then taste the solution and compare it to a battery of stock sucrose solutions ranging from 3% to 15% at increments of 1%. Each panel member decides which sucrose solution is equisweet with the solution containing the compound of interest. The mean value is then reported as the SEV. Results are reported to 1 decimal place.
In accordance with this methodology, 3-HB was added to a pH 3.2 buffered solution containing 5% sucrose to produce solutions containing from 0 to 1000 ppm 3-HB in 100 ppm increments. […] From FIG. 1 it is apparent that as the dosage of 3-HB increases so does the sweetness of the resultant solution. However the effect is non-linear with each incremental addition having a diminishing effect. The maximum sweetness attainable would appear to be about 7.9% SEV (based on a 5% sucrose solution).
The same methodology as described in Example 1 was repeated with 2,4-DHB in place of 3-HB, to produce the dose response curve for 2,4-DHB (FIG. 2). […] The maximum attainable sweetness would appear to be about 6.7% SEV (based on a 5% sucrose solution).
500 ppm of a sweetener potentiator was added to a pH 3.2 buffered solution containing 5% sucrose and the SEV of the resultant solution determined.
500 ppm of the sweetener potentiator then was added to a 5% sucrose solution containing 500 ppm 3-HB to produce a series of solutions. […] The use of 500 ppm of 3-HB alone results in an SEV of 6.9% whereas in all cases but two (2,4-DHB and 3,4-DHB) the addition of a second sweetener potentiator results in a little change or even a decrease in SEV. This is highly surprising considering that all of the potentiators are shown to have SEVs greater than 5%.
The methodology was repeated to produce a series of solutions containing 500 ppm 2,4-DHB and 500 ppm of a second sweetener potentiator.
500 ppm of 3-HB, 500 ppm of 2,4-DHB and 500 ppm of 3,4-dihydroxybenzoic acid (3,4-DHB) were added to a pH 3.2 buffered solution containing 5% sucrose and the SEV determined. The results are shown in FIG. 7 together with other combinations of 3-HB, 2,4-DHB and 3,4-DHB for comparison. The solution containing the combination of 3-HB and 2,4-DHB (hatched) has a much higher SEV (8.7%) than the combination of either 3,4-DHB and 3-HB (7.6%) or the combination of 3,4-DHB and 2,4-DHB (6.8%). The three-way combination of the embodiment (hatched) is better still with an SEV of 9.8%.
pH 3.2 buffered solutions were prepared containing 0%, 3%, 5%, 7% and 9% sucrose. 500 ppm of 2,4-DHB acid, 500 ppm of the sodium salt of 2,4-DHB and 500 ppm of the potassium salt of 2,4-DHB were added individually to each of the sucrose solutions. The SEV for each of the solutions was then determined.
500 ppm of 3-aminobenzoic acid and 500 ppm of 4-aminobenzoic acid were individually added to separate pH 3.2 buffered solutions containing 5% sucrose and the SEVs of the resultant solutions were determined. The SEV of 3-aminobenzoic acid was about 7%, i.e., increased the sweetness intensity of 5% sucrose to about 7%. The SEV of 4-aminobenzoic acid was about 5.5-6%, i.e., increased the sweetness intensity of 5% sucrose to about 5.5-6%.

Experiment [2] deals with sweetness perception of sweeteners. To be noted: cited from earlier work.
Experiment [3] concerns perceived sweetness of non-sucrose sweetener solutions (SEV about 5%). The experiment is described as follows: SEV of non-sucrose sweetener solutions after addition of potentiators. Format: in vivo. To be noted: 500 ppm 3-HB alone versus with 500 ppm 2,4-DHB, pH 3.2. The method, then:
as §1
The SEV of each sweetener solution was then evaluated after the addition 500 ppm of 3-HB, the addition of 500 ppm of 2,4-DHB and the addition of both 500 ppm 3-HB and 2,4-DHB.

Take `O=C(O)c1cc(O)c(O)c(O)c1` [3,4,5-tryhydroxybenzoic acid (3,4,5-THB), 3,4,5-tryhydroxybenzoic acid]: in experiment [1], the “SEV (%)” value was 5.1%.

Take `O=C(O)c1ccc(O)cc1O` [2,4-dihydroxybenzoic acid (2,4-DHB), 2,4-dihydroxybenzoic acid]: the “effect on sweetness intensity of sucralose and aspartame” value in experiment [2] (FIGS. 1 and 2, Tables 1 and 2 of US 6,461,658) is on record as “slightly inhibitory effect”. For the same compound, the listed taste character result in experiment [2] (US 5,232,735) is “substantially tasteless sweetness inhibitor”. Further, the “effect on sweetness delivery profile of sucralose” value in experiment [2] (US 6,461,658) is “significantly reducing the length of time during which sucralose sweetness is perceived”. Besides, the “effect on sweetness delivery profile of aspartame” value in experiment [2] (US 6,461,658, compared with effect on sucralose) was “The same effect is not observed for aspartame”. Moreover, the “effect on sweetness of aspartame” value in experiment [2] (WO99/15032) is “increase sweetness synergistically”. Also, the “effect with alitame, Ace-K, saccharin or a mixture of aspartame and Ace-K” value in experiment [2] (WO99/15032, compared with effect on aspartame) is “same effect is not observed”. Moreover, in experiment [2] (addition of 0.2% 2,4-DHB, Canadian Patent No. 1208966), the “effect on sweetness of 5% sucrose solution” value is reported as “increase in sweetness”. In experiment [1], the “effect on sweetness of the sucrose solution (dose response curve)” value is recorded as “enhances the sweetness of the sucrose solution” and the “sweetness enhancement of sucrose solutions by different forms of 2,4-DHB” value is “enhances the sweetness of the sucrose solution in every case”.

With `O=C([O-])c1ccc(O)cc1O.[Na+]` [sodium salt of 2,4-DHB], the “sweetness enhancement of sucrose solutions by different forms of 2,4-DHB” value in experiment [1] is “enhances the sweetness of the sucrose solution in every case”.

Turning to `O=C(O)c1ccc(O)c(O)c1` [3,4-dihydroxybenzoic acid (3,4-DHB), 3,4-dihydroxybenzoic acid], in experiment [1], the “SEV (%)” value worked out at 6.4%.

Consider `O=C(O)c1cccc(O)c1` [3-hydroxybenzoic acid (3-HB), 3-hydroxybenzoic acid], for which, in experiment [2] (pH 2.0 to 5.5, EP 0132444 and US 4,627,987), the “effect on sweetness of sucrose, aspartame and saccharin” value is on record as “enhance sweetness”. Also, in experiment [1], the “effect on sweetness of the sucrose solution (dose response curve)” value is given as “enhances the sweetness of the sucrose solution”. For the same compound, in experiment [1] (second potentiator 500 ppm added to 500 ppm 2,4-DHB, 5% sucrose), the “SEV of solution containing 500 ppm 2,4-DHB and 500 ppm of a second sweetener potentiator” value was “significant positive effect”. Besides, the “sweetness enhancement of saccharin solution, alone versus combination” value in experiment [3] is on record as “enhances the sweetness to a greater degree alone than in combination with 2,4-DHB”.

`O=C([O-])c1ccc(O)cc1O.[K+]` [potassium salt of 2,4-DHB]: the “sweetness enhancement of sucrose solutions by different forms of 2,4-DHB” value in experiment [1] was “enhances the sweetness of the sucrose solution in every case”.
